Test results: patent publication US12448377B2, “Heterocyclic compound” (Takeda Pharmaceutical Company Limited, priority 2019, dated 2025)

What was measured:
[1] = molecular target: T1, human orexin type 2 receptor (Homo sapiens, UniProt O43614); test: Measurement of orexin type 2 receptor agonist activity (calcium fluorescence, CHO cells forcibly expressing human OX2 receptor); assay type: cell-based; details: compound at 3 μM, DMSO = 0%, orexin A (human) 10 nM = 100%
T1 construct: expressed in transfected cells
T1 sequence (O43614 1-444): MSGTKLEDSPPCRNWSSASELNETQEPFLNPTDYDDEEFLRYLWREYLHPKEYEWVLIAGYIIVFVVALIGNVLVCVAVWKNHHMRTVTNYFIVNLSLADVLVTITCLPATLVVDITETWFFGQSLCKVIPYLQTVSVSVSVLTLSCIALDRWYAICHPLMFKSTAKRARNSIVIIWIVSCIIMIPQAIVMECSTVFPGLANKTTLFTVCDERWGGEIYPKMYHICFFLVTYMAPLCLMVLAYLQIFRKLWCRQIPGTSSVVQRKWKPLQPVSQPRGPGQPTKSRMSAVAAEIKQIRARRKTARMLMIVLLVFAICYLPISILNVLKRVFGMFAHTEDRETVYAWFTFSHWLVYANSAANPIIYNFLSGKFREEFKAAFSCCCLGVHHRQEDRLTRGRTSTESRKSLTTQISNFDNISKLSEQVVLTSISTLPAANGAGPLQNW
Summary of the method: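 Agonism measured as Fluo-4 calcium fluorescence in CHO-K1 cells stably expressing human OX2 receptor, loaded 30 min at 37° C then 30 min at room temperature with probenecid. Signal recorded about 2 min 40 sec after compound; activity (%) normalised to DMSO (0%) and 10 nM human orexin A (100%).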

SD rats = test: Evaluation of wake-promoting effects in SD rats (EEG/EMG); assay type: in vivo, rat; details: s.c., 10 mg/kg, at ZT5, 3 hr after administration
Method: The wake-promoting effects were evaluated by measuring the electroencephalogram (EEG) and electromyogram (EMG) in SD rats (Crl:CD(SD), CHARLES RIVER LABORATORIES JAPAN, Kanagawa, Japan.) using chronic experiment telemetry automatic measurement system (PhysioTel® and PONEMAH™, Data Sciences International Inc., Minnesota, U.S.A.). Under pentobarbital sodium anesthesia (50 mg/kg, intraperitoneal, Somnopentyl®, Kyoritsu Seiyaku, Tokyo, Japan), […] male SD rats were surgically implanted with a transmitter. Bilateral EEG leads were positioned at the parietal area in contact with the dura and fixed to the cranium with dental cement. Bilateral EMG leads were fixed to the back cervical muscles. The transmitter was implanted under the skin of the back, and the head skin was sutured. After recovery for at least 1 week, the cortical EEG and EMG signals in SD rats were recorded using a high-end data acquisition and real-time analysis system (PONEMAH™). The signals were automatically scored in 4 sec epochs by a sleep scoring system (SleepSign®, Kissei Comtec Co., Ltd.). Test compound (1 or 10 mg/kg, Table 3) dissolved in a mixed solution containing 10% DMSO, 10% Cremophor EL, 20% PEG400 and 60% H2O, or vehicle (i.e., a mixed solution containing 10% DMSO, 10% Cremophor EL, 20% PEG400 and 60% H2O) was administered subcutaneously (s.c.) to the SD rats at zeitgeber time (ZT) 5 (when the start time of the light cycle was ZT0) in a volume of 5 mL/kg. The EEG and EMG recordings were performed for 3 hr after the compound administration. The time spent in wakefulness for 3 hr after administration (% of vehicle treatment) was calculated by using SleepSign.

- OX2R agonist activity (3 μM, %) [1]: 104%
Structure (SMILES): CC#CC1CCC(OCC2C(NS(C)(=O)=O)CCc3ccc(C)c(=O)n32)CC1 [Example 146, rel-N-[(3S,4R)-7-methyl-6-oxo-4-({[(1s,4S)-4-(prop-1-yn-1-yl)cyclohexyl]oxy}methyl)-1,3,4,6-tetrahydro-2H-quinolizin-3-yl]methanesulfonamide]
- Wakefulness time (% of vehicle treatment) (Mean, n = 2) (SD rats): 166.75 % of vehicle treatment
